Source: publication PMC5218480 (PLoS ONE, 2017)

Tested on: MV-4-11 cells
Experiment: Gene expression microarray analysis (Affymetrix PrimeView) and GSEA
Assay type: cell-based, human
Parameters: RFU PODN (11730768_x_at) / Fold change /veh PODN (11730768_x_at) / RFU LINC00158 (11744669_a_at) / Fold change /veh LINC00158 (11744669_a_at) / RFU DUSP10 (11751237_a_at) / Fold change /veh DUSP10 (11751237_a_at) / RFU ID3 (11757404_x_at) / Fold change /veh ID3 (11757404_x_at) / RFU PLEKHG5 (11737974_s_at) / Fold change /veh PLEKHG5 (11737974_s_at) / RFU LRRC4B (11730491_at) / Fold change /veh LRRC4B (11730491_at) / RFU GIMAP4 (11747438_a_at) / Fold change /veh GIMAP4 (11747438_a_at) / RFU KRT8 (11758183_x_at) / Fold change /veh KRT8 (11758183_x_at) / RFU CNN1 (11734310_a_at) / Fold change /veh CNN1 (11734310_a_at) / RFU VPS37D (11726825_at) / Fold change /veh VPS37D (11726825_at) / RFU C10orf10 (11716522_x_at) / Fold change /veh C10orf10 (11716522_x_at) / RFU KIR2DL2 /// KIR2DL4 /// KIR2DL5A /// KIR2DL5B /// KIR2DS1 /// KIR2DS2 /// KIR2DS3 /// KIR2DS4 /// KIR3DL3 /// KIR3DL3 /// KIR3DS1 (11738374_at) / Fold change /veh KIR2DL2 /// KIR2DL4 /// KIR2DL5A /// KIR2DL5B /// KIR2DS1 /// KIR2DS2 /// KIR2DS3 /// KIR2DS4 /// KIR3DL3 /// KIR3DL3 /// KIR3DS1 (11738374_at) / RFU C1QL1 (11718748_at) / Fold change /veh C1QL1 (11718748_at) / RFU TMPRSS4 (11747572_a_at) / Fold change /veh TMPRSS4 (11747572_a_at) / RFU HAMP (11756126_x_at) / Fold change /veh HAMP (11756126_x_at) / RFU RNFT2 (11725882_a_at) / Fold change /veh RNFT2 (11725882_a_at) / RFU NR4A2 (11747474_a_at) / Fold change /veh NR4A2 (11747474_a_at) / RFU ABCC12 (11746883_a_at) / Fold change /veh ABCC12 (11746883_a_at) / RFU TMEM136 (11760407_x_at) / Fold change /veh TMEM136 (11760407_x_at) / RFU CLDN22 /// WWC2 (11732394_at) / Fold change /veh CLDN22 /// WWC2 (11732394_at) / RFU HLA-DPB1 (11760878_x_at) / Fold change /veh HLA-DPB1 (11760878_x_at) / RFU SPINT1 (11716480_a_at) / Fold change /veh SPINT1 (11716480_a_at) / RFU GAP43 (11754022_s_at) / Fold change /veh GAP43 (11754022_s_at) / RFU A4GNT (11735810_at) / Fold change /veh A4GNT (11735810_at) / RFU PRB3 (11715151_x_at) / Fold change /veh PRB3 (11715151_x_at) / RFU TUBB4B (11761932_at) / Fold change /veh TUBB4B (11761932_at) / RFU CAPN14 (11732068_a_at) / Fold change /veh CAPN14 (11732068_a_at) / RFU TMCC2 (11721928_a_at) / Fold change /veh TMCC2 (11721928_a_at) / RFU IRGQ (11745062_a_at) / Fold change /veh IRGQ (11745062_a_at) / RFU FAM174B (11720279_a_at) / Fold change /veh FAM174B (11720279_a_at) / RFU TMPRSS4 (11748680_a_at) / Fold change /veh TMPRSS4 (11748680_a_at) / RFU FAM212B (11763350_a_at) / Fold change /veh FAM212B (11763350_a_at) / RFU PLEKHG5 (11743358_a_at) / Fold change /veh PLEKHG5 (11743358_a_at) / RFU ZSCAN30 (11745921_a_at) / Fold change /veh ZSCAN30 (11745921_a_at) / RFU CMKLR1 (11741424_a_at) / Fold change /veh CMKLR1 (11741424_a_at) / RFU LOC101060620 /// MAPK8IP1 (11723275_at) / Fold change /veh LOC101060620 /// MAPK8IP1 (11723275_at) / RFU SPTSSB (11747773_x_at) / Fold change /veh SPTSSB (11747773_x_at) / RFU PRSS12 (11739890_at) / Fold change /veh PRSS12 (11739890_at) / RFU BIN1 (11741810_x_at) / Fold change /veh BIN1 (11741810_x_at) / RFU WNT11 (11732464_a_at) / Fold change /veh WNT11 (11732464_a_at) / RFU C10orf10 (11716521_a_at) / Fold change /veh C10orf10 (11716521_a_at) / RFU C5orf56 (11738089_at) / Fold change /veh C5orf56 (11738089_at) / RFU CYB561 (11721691_x_at) / Fold change /veh CYB561 (11721691_x_at) / RFU ANKRD19P (11752326_a_at) / Fold change /veh ANKRD19P (11752326_a_at) / RFU OR2T12 /// OR2T33 /// OR2T8 (11738714_s_at) / Fold change /veh OR2T12 /// OR2T33 /// OR2T8 (11738714_s_at) / RFU VCAN (11748164_a_at) / Fold change /veh VCAN (11748164_a_at) / RFU JSRP1 (11732532_at) / Fold change /veh JSRP1 (11732532_at) / RFU KRTAP10-11 (11738290_x_at) / Fold change /veh KRTAP10-11 (11738290_x_at) / RFU MYO3A (11730013_a_at) / Fold change /veh MYO3A (11730013_a_at) / RFU EBF3 (11725865_a_at) / Fold change /veh EBF3 (11725865_a_at) / RFU CAMK2N1 (11719241_x_at) / Fold change /veh CAMK2N1 (11719241_x_at) / RFU C5orf56 (11738088_a_at) / Fold change /veh C5orf56 (11738088_a_at) / RFU OLFML3 (11715873_a_at) / Fold change /veh OLFML3 (11715873_a_at) / RFU LOC100653217 /// NTM (11731650_a_at) / Fold change /veh LOC100653217 /// NTM (11731650_a_at) / RFU MAPK11 (11762145_a_at) / Fold change /veh MAPK11 (11762145_a_at) / RFU FIZ1 (11724087_x_at) / Fold change /veh FIZ1 (11724087_x_at) / RFU OASL (11726364_x_at) / Fold change /veh OASL (11726364_x_at) / RFU SOX15 (11748057_x_at) / Fold change /veh SOX15 (11748057_x_at) / RFU CD79A (11719716_a_at) / Fold change /veh CD79A (11719716_a_at) / RFU HIST1H1D (11736915_at) / Fold change /veh HIST1H1D (11736915_at) / RFU CASKIN2 (11723855_a_at) / Fold change /veh CASKIN2 (11723855_a_at) / RFU LOC730098 (11760151_x_at) / Fold change /veh LOC730098 (11760151_x_at) / RFU OR4N2 (11742367_at) / Fold change /veh OR4N2 (11742367_at) / RFU PRRT2 (11749266_a_at) / Fold change /veh PRRT2 (11749266_a_at) / RFU SNX32 (11753110_a_at) / Fold change /veh SNX32 (11753110_a_at) / RFU CDHR5 (11726645_a_at) / Fold change /veh CDHR5 (11726645_a_at) / RFU RCAN1 (11760418_a_at) / Fold change /veh RCAN1 (11760418_a_at) / RFU FAM167A (11723789_a_at) / Fold change /veh FAM167A (11723789_a_at) / RFU FAM26E (11764081_at) / Fold change /veh FAM26E (11764081_at) / RFU ISYNA1 (11749810_s_at) / Fold change /veh ISYNA1 (11749810_s_at) / RFU ACY1 (11761880_at) / Fold change /veh ACY1 (11761880_at) / RFU 11764098_at / Fold change /veh 11764098_at / RFU SAMD14 (11745864_x_at) / Fold change /veh SAMD14 (11745864_x_at) / RFU NPB (11741838_a_at) / Fold change /veh NPB (11741838_a_at) / RFU TMPRSS6 (11731388_a_at) / Fold change /veh TMPRSS6 (11731388_a_at) / RFU KRTAP10-2 (11738614_at) / Fold change /veh KRTAP10-2 (11738614_at) / RFU ARHGAP8 /// PRR5-ARHGAP8 (11727945_x_at) / Fold change /veh ARHGAP8 /// PRR5-ARHGAP8 (11727945_x_at) / RFU KRTAP5-7 /// NADSYN1 (11734609_at) / Fold change /veh KRTAP5-7 /// NADSYN1 (11734609_at) / RFU RASL12 (11751679_a_at) / Fold change /veh RASL12 (11751679_a_at) / RFU CDKN2B (11736163_a_at) / Fold change /veh CDKN2B (11736163_a_at) / RFU PRF1 (11729649_at) / Fold change /veh PRF1 (11729649_at) / RFU, ZNF638 /// ZNF638-IT1 / Fold change vs veh, ZNF638 /// ZNF638-IT1 / RFU, PANK3 / Fold change vs veh, PANK3 / RFU, SH3YL1 / Fold change vs veh, SH3YL1 / RFU, ZEB2 / Fold change vs veh, ZEB2 / RFU, NRIP1 / Fold change vs veh, NRIP1 / RFU, PTTG1IP / Fold change vs veh, PTTG1IP / RFU, CAPN2 / Fold change vs veh, CAPN2 / RFU, MED14 / Fold change vs veh, MED14 / RFU, SNORA58 / Fold change vs veh, SNORA58 / RFU, C1orf63 / Fold change vs veh, C1orf63 / RFU, LRRFIP1 / Fold change vs veh, LRRFIP1 / RFU, NDUFAF7 / Fold change vs veh, NDUFAF7 / RFU, SLC12A2 / Fold change vs veh, SLC12A2 / RFU, IBTK / Fold change vs veh, IBTK / RFU, ESF1 / Fold change vs veh, ESF1 / Fold change vs veh, TMEM50B / RFU, TAOK1 / Fold change vs veh, TAOK1 / RFU, ACBD3 / Fold change vs veh, ACBD3 / RFU, TMA16 / Fold change vs veh, TMA16 / RFU, RWDD3 / Fold change vs veh, RWDD3 / RFU, BCAT1 / Fold change vs veh, BCAT1 / RFU, EDEM3 / Fold change vs veh, EDEM3 / RFU, TMEM33 / Fold change vs veh, TMEM33 / RFU, WDR75 / Fold change vs veh, WDR75 / RFU, AHCTF1 / Fold change vs veh, AHCTF1 / RFU, TFRC / Fold change vs veh, TFRC / RFU, ZDHHC17 / Fold change vs veh, ZDHHC17 / RFU, NOM1 / Fold change vs veh, NOM1 / RFU, ARL8B / Fold change vs veh, ARL8B / RFU, ZBTB11 / Fold change vs veh, ZBTB11 / RFU, TAMM41 / Fold change vs veh, TAMM41 / RFU, KIAA1704 /// LOC100996395 / Fold change vs veh, KIAA1704 /// LOC100996395 / RFU, ING1 / Fold change vs veh, ING1 / RFU, TRMT61B / Fold change vs veh, TRMT61B / RFU, FUBP3 / Fold change vs veh, FUBP3 / RFU, TP53 / Fold change vs veh, TP53 / RFU, TNKS2 / Fold change vs veh, TNKS2 / RFU, ZFP14 / Fold change vs veh, ZFP14 / RFU, ACTR2 / Fold change vs veh, ACTR2 / RFU, PPP3R1 / Fold change vs veh, PPP3R1 / RFU, PIK3R1 / Fold change vs veh, PIK3R1 / RFU, HNRNPA1 / Fold change vs veh, HNRNPA1 / RFU, RNF170 / Fold change vs veh, RNF170 / RFU, ZNF28 / Fold change vs veh, ZNF28 / RFU, RNGTT / Fold change vs veh, RNGTT / RFU, OGT / Fold change vs veh, OGT / RFU, BRD1 / Fold change vs veh, BRD1 / RFU, MARS / Fold change vs veh, MARS / RFU, ZNF655 / Fold change vs veh, ZNF655 / RFU, FAHD1 / Fold change vs veh, FAHD1 / RFU, BDP1 / Fold change vs veh, BDP1 / RFU, LRRCC1 / Fold change vs veh, LRRCC1 / RFU, ARID1A / Fold change vs veh, ARID1A / RFU, ZNF146 / Fold change vs veh, ZNF146 / RFU, ZNF330 / Fold change vs veh, ZNF330 / RFU, GPN3 / Fold change vs veh, GPN3 / RFU, C9orf123 / Fold change vs veh, C9orf123 / RFU, N4BP2L2 / Fold change vs veh, N4BP2L2 / RFU, ARFIP1 / Fold change vs veh, ARFIP1 / RFU, FAM179B / Fold change vs veh, FAM179B / RFU, BCL10 / Fold change vs veh, BCL10 / RFU, UHRF1BP1L / Fold change vs veh, UHRF1BP1L / RFU, BET1 / Fold change vs veh, BET1 / RFU, CNOT2 / Fold change vs veh, CNOT2 / RFU, ZNF268 / Fold change vs veh, ZNF268 / Fold change vs veh, ZNF507 / RFU, DGCR2 / Fold change vs veh, DGCR2 / RFU, WDSUB1 / Fold change vs veh, WDSUB1 / Fold change vs veh, HSP90B1 /// MIR3652 / RFU, ADSS / Fold change vs veh, ADSS / RFU, GK / Fold change vs veh, GK / RFU, ZNF148 / Fold change vs veh, ZNF148 / RFU, TAF9 / Fold change vs veh, TAF9 / RFU, SLC1A5 / Fold change vs veh, SLC1A5 / RFU, SLMO2 / Fold change vs veh, SLMO2 / RFU, ABCC4 / Fold change vs veh, ABCC4 / RFU, LOC101060439 /// RAP1B / Fold change vs veh, LOC101060439 /// RAP1B / RFU, RFX7 / Fold change vs veh, RFX7 / RFU, GTPBP10 / Fold change vs veh, GTPBP10 / RFU, CNEP1R1 / Fold change vs veh, CNEP1R1 / RFU, BIVM-ERCC5 /// ERCC5 / Fold change vs veh, BIVM-ERCC5 /// ERCC5 / RFU, ILF3 / Fold change vs veh, ILF3 / RFU 11762660_at / Fold change /veh 11762660_at / RFU VCAN (11757783_s_at) / Fold change /veh VCAN (11757783_s_at) / RFU DDX43 (11728927_at) / Fold change /veh DDX43 (11728927_at) / RFU KRT8 (11758188_x_at) / Fold change /veh KRT8 (11758188_x_at) / RFU NKD1 (11759106_at) / Fold change /veh NKD1 (11759106_at) / RFU SRD5A1 (11742802_a_at) / Fold change /veh SRD5A1 (11742802_a_at) / RFU TPSAB1 /// TPSB2 (11721975_s_at) / Fold change /veh TPSAB1 /// TPSB2 (11721975_s_at) / RFU GSTM3 (11746129_a_at) / Fold change /veh GSTM3 (11746129_a_at) / RFU IL23R (11737362_x_at) / Fold change /veh IL23R (11737362_x_at) / RFU TMEM51 (11727254_a_at) / Fold change /veh TMEM51 (11727254_a_at) / RFU PIWIL2 (11732686_x_at) / Fold change /veh PIWIL2 (11732686_x_at) / RFU ORM1 (11744905_x_at) / Fold change /veh ORM1 (11744905_x_at) / RFU CCDC152 (11743942_at) / Fold change /veh CCDC152 (11743942_at) / RFU ECM1 (11717891_a_at) / Fold change /veh ECM1 (11717891_a_at) / RFU IL23R (11748794_a_at) / Fold change /veh IL23R (11748794_a_at) / RFU TNFAIP8L3 (11732012_x_at) / Fold change /veh TNFAIP8L3 (11732012_x_at) / RFU MBOAT4 (11741988_at) / Fold change /veh MBOAT4 (11741988_at) / RFU 11764193_at / Fold change /veh 11764193_at / RFU TMEM53 (11763286_at) / Fold change /veh TMEM53 (11763286_at) / RFU MAGEB2 (11727129_at) / Fold change /veh MAGEB2 (11727129_at) / RFU TMEM200A (11744735_a_at) / Fold change /veh TMEM200A (11744735_a_at) / RFU CCDC152 (11751479_a_at) / Fold change /veh CCDC152 (11751479_a_at) / RFU FAM211A (11726209_a_at) / Fold change /veh FAM211A (11726209_a_at) / RFU RGS16 (11746705_a_at) / Fold change /veh RGS16 (11746705_a_at) / RFU VCAN (11755009_s_at) / Fold change /veh VCAN (11755009_s_at) / RFU RHOB (11743442_s_at) / Fold change /veh RHOB (11743442_s_at) / RFU RGS16 (11720943_a_at) / Fold change /veh RGS16 (11720943_a_at) / RFU RGS16 (11720944_at) / Fold change /veh RGS16 (11720944_at) / RFU, VPS4B / Fold change vs veh, VPS4B / RFU, CREB1 / Fold change vs veh, CREB1 / RFU, DNAJC13 / Fold change vs veh, DNAJC13 / RFU, GNAQ / Fold change vs veh, GNAQ / RFU, CDK5R1 / Fold change vs veh, CDK5R1 / RFU, ZRANB3 / Fold change vs veh, ZRANB3 / RFU, CUL4A / Fold change vs veh, CUL4A / RFU, CCNY / Fold change vs veh, CCNY / RFU, UFL1 / Fold change vs veh, UFL1 / RFU, COG3 / Fold change vs veh, COG3 / RFU, DIAPH2 / Fold change vs veh, DIAPH2 / RFU, SKA2 / Fold change vs veh, SKA2 / RFU, AFF3 / Fold change vs veh, AFF3 / RFU, LMF1 / Fold change vs veh, LMF1 / RFU, IPO11 / Fold change vs veh, IPO11 / RFU, DFFB / Fold change vs veh, DFFB / RFU, FOXP1 / Fold change vs veh, FOXP1 / RFU, CARD8 / Fold change vs veh, CARD8 / RFU, STRN3 / Fold change vs veh, STRN3 / RFU, ADK / Fold change vs veh, ADK / RFU, RASSF2 / Fold change vs veh, RASSF2 / RFU, WIPF1 / Fold change vs veh, WIPF1 / RFU, LARP1B / Fold change vs veh, LARP1B / RFU, RASA1 / Fold change vs veh, RASA1 / RFU, RB1 / Fold change vs veh, RB1 / RFU, PPFIA1 / Fold change vs veh, PPFIA1 / RFU, MAT2A / Fold change vs veh, MAT2A / RFU, CCT5 / Fold change vs veh, CCT5 / RFU, WDR92 / Fold change vs veh, WDR92 / RFU, CUX1 / Fold change vs veh, CUX1 / RFU, TTC7A / Fold change vs veh, TTC7A / RFU, TMEM135 / Fold change vs veh, TMEM135 / RFU, DEPTOR / Fold change vs veh, DEPTOR / RFU, CPM / Fold change vs veh, CPM / RFU, DNAJB6 / Fold change vs veh, DNAJB6 / RFU, CACNA2D3 / Fold change vs veh, CACNA2D3 / RFU, DTX4 / Fold change vs veh, DTX4 / RFU, TFCP2 / Fold change vs veh, TFCP2 / RFU, GMCL1 /// GMCL1P1 / Fold change vs veh, GMCL1 /// GMCL1P1 / RFU, AEBP2 / Fold change vs veh, AEBP2 / RFU, SNHG1 /// SNORD22 /// SNORD25 /// SNORD26 /// SNORD27 /// SNORD28 /// SNORD29 /// SNORD31 / Fold change vs veh, SNHG1 /// SNORD22 /// SNORD25 /// SNORD26 /// SNORD27 /// SNORD28 /// SNORD29 /// SNORD31 / Fold change (Aza/veh), C12orf56 (ProbeSet 11735607_a_at) / Fold change (ACY-1035/veh), C12orf56 (ProbeSet 11735607_a_at) / Fold change (Aza/veh), FGFR1OP (ProbeSet 11751329_s_at) / Fold change (ACY-1035/veh), FGFR1OP (ProbeSet 11751329_s_at) / Fold change (Aza/veh), VPS36 (ProbeSet 11739960_a_at) / Fold change (ACY-1035/veh), VPS36 (ProbeSet 11739960_a_at) / RFU SYPL1 (11715823_x_at) / Fold change /veh SYPL1 (11715823_x_at) / RFU IGFBP7 (11715501_s_at) / Fold change /veh IGFBP7 (11715501_s_at) / RFU REEP3 (11722064_at) / Fold change /veh REEP3 (11722064_at) / RFU IGLL1 (11728026_x_at) / Fold change /veh IGLL1 (11728026_x_at): dose or concentration left out as unconfirmed
Conditions: MV-4-11 cells, 48 hours

Nc1ncn([C@@H]2O[C@H](CO)[C@@H](O)[C@H]2O)c(=O)n1 [azacitidine]
RFU 11762660_at: 14.91 RFU
